Data: patent US11547681B2, “N-acylethanolamide derivatives and uses thereof” (ELIEM THERAPEUTICS, INC., priority 2016, dated 2023)

Assay: in vitro
Details: for Measured concentration of PEA (analyte) / % Remaining of Initial: 1 μM; for half-life at 1 μM: s9, Half-life
Description: Reaction mixture, minus cofactors, was prepared as described below. Test article was added into the reaction mixture at a final concentration of 1 μM. […] An aliquot of the reaction mixture (without cofactor cocktail) was equilibrated in a shaking water bath at 37° C. for 3 minutes. The reaction was initiated by the addition of cofactor cocktail (see below), and the mixture was then incubated in a shaking water bath at 37° C. Aliquots (100 μL) were withdrawn 0, 10, 20, 30 and 60 minutes. Test article samples were immediately combined with 300 μL of ice-cold acetonitrile containing 1% formic acid. Control samples were immediately combined with 400 μL of ice-cold 50/50 acetonitrile (ACN)/dH2O containing 0.1% formic acid and internal standard to terminate the reaction. Samples were then mixed and centrifuged to precipitate proteins. Calibration standards were prepared in matched matrix. Samples and standards were assayed by LC-MS/MS using electrospray ionization for both the dosed prodrug and the expected drug (PEA). Analytical conditions are outlined in Appendix 8-1. Test article concentration at each time point was compared to the test article concentration at time 0 to determine the percent remaining at each time point. Half-lives were calculated using GraphPad software, fitting to a single-phase exponential decay equation.
Reaction mixture, minus cofactors, was prepared as described below. Test article was added into the reaction mixture at a final concentration of 1 μM. […] An aliquot of the reaction mixture (without cofactor cocktail) was equilibrated in a shaking water bath at 37° C. for 5 minutes. Reaction was initiated by the addition of cofactor cocktail (see below), and mixture was then incubated in a shaking water bath at 37° C. Aliquots (100 μL) were withdrawn at 0, 10, 20, 30, and 60 minutes. Test article samples were immediately combined with 300 μL of ice-cold acetonitrile containing 1% formic acid. Control samples were immediately combined with 400 μL of ice-cold 50/50 acetonitrile (ACN)/dH2O containing 0.1% formic acid and internal standard to terminate the reaction. Samples were then mixed and centrifuged to precipitate proteins. Calibration standards were prepared in matched matrix. Samples and standards were assayed by LC-MS/MS using electrospray ionization for both dosed prodrug and expected drug (PEA). Analytical conditions are outlined in Appendix 10-1. Test article concentration at each time point was compared to test article concentration at time 0 to determine the percent remaining at each time point. Half-lives were calculated using GraphPad software, fitting to a single-phase exponential decay equation.
The reaction mixture, minus cofactors, was prepared as described below. Test article was added into the reaction mixture at a final concentration of 1 μM. […] An aliquot of the reaction mixture (without cofactor cocktail) was equilibrated in a shaking water bath at 37° C. for 3 minutes. Reaction was initiated by the addition of cofactor cocktail (see below), and the mixture was then incubated in a shaking water bath at 37° C. Aliquots (100 μL) were withdrawn at 0, 10, 20, 30, and 60 minutes. Test article samples were immediately combined with 300 μL of ice-cold acetonitrile containing 1% formic acid. Control samples were immediately combined with 400 μL of ice-cold 50/50 acetonitrile (ACN)/dH2O containing 0.1% formic acid and internal standard to terminate the reaction. Samples were then mixed and centrifuged to precipitate proteins. Calibration standards were prepared in matched matrix. Samples and standards were assayed by LC-MS/MS using electrospray ionization for both dosed prodrug and expected drug (PEA). Analytical conditions are outlined in Appendix 13-1. Test article concentration at each time point was compared to the test article concentration at time 0 to determine the percent remaining at each time point.

[1] = male, Sprague-Dawley, rat, 0 min
[2] = male, Sprague-Dawley, rat, 10 min
[3] = male, Sprague-Dawley, rat, 20 min
[4] = male, Sprague-Dawley, rat, 30 min
[5] = male, Sprague-Dawley, rat, 60 min
[6] = male, Sprague-Dawley, rat, s9, 0 h
[7] = male, Sprague-Dawley, rat, s9, 10 min
[8] = male, Sprague-Dawley, rat, s9, 20 min
[9] = male, Sprague-Dawley, rat, s9, 0.5 h
[10] = male, Sprague-Dawley, rat, s9, 1 h
[11] = male, Sprague-Dawley, rat, calculated value in parentheses

CCCCCCCCCCCCCCCC(=O)NCCOC(=O)CCC(=O)OC(CO)CO [Compound I-8]
Measured concentration of PEA (analyte) (both, human, 0 min): 0.19 µM
Measured concentration of PEA (analyte) (both, human, 10 min): 0.57 µM
Measured concentration of PEA (analyte) (both, human, 20 min): 0.47 µM
Measured concentration of PEA (analyte) (both, human, 30 min): 0.41 µM
Measured concentration of PEA (analyte) (both, human, 60 min): 0.28 µM
% Remaining of Initial (both, human, s9, 0 h): 100%
% Remaining of Initial (both, human, s9, 10 min): 1.4%
% Remaining of Initial (both, human, s9, 20 min): <1.0%
% Remaining of Initial (both, human, s9, 0.5 h): <1.0%
% Remaining of Initial (both, human, s9, 1 h): <1.0%
half-life at 1 μM (both, human): < 10 min
Measured concentration of PEA (analyte) (male, Beagle, dog, 0 min): 0.13 µM
Measured concentration of PEA (analyte) (male, Beagle, dog, 10 min): 0.33 µM
Measured concentration of PEA (analyte) (male, Beagle, dog, 20 min): 0.34 µM
Measured concentration of PEA (analyte) (male, Beagle, dog, 30 min): 0.33 µM
Measured concentration of PEA (analyte) (male, Beagle, dog, 60 min): 0.20 µM
% Remaining of Initial (male, Beagle, dog, s9, 0 h): 100%
% Remaining of Initial (male, Beagle, dog, s9, 10 min): 32%
% Remaining of Initial (male, Beagle, dog, s9, 20 min): 11%
% Remaining of Initial (male, Beagle, dog, s9, 0.5 h): 3.5%
% Remaining of Initial (male, Beagle, dog, s9, 1 h): <1.0%
half-life at 1 μM (male, Beagle, dog): < 10 min
Measured concentration of PEA (analyte) (male, CD-1, mouse, 0 min): 0.29 µM
Measured concentration of PEA (analyte) (male, CD-1, mouse, 10 min): 0.50 µM
Measured concentration of PEA (analyte) (male, CD-1, mouse, 20 min): 0.44 µM
Measured concentration of PEA (analyte) (male, CD-1, mouse, 30 min): 0.38 µM
Measured concentration of PEA (analyte) (male, CD-1, mouse, 60 min): 0.37 µM
% Remaining of Initial (male, CD-1, mouse, s9, 0 h): 100%
% Remaining of Initial (male, CD-1, mouse, s9, 10 min): 4.6%
% Remaining of Initial (male, CD-1, mouse, s9, 20 min): 1.0%
% Remaining of Initial (male, CD-1, mouse, s9, 0.5 h): <1.0%
% Remaining of Initial (male, CD-1, mouse, s9, 1 h): <1.0%
half-life at 1 μM (male, CD-1, mouse): < 10 min
half-life at 1 μM (male, CD-1, mouse, calculated value in parentheses): 2.3 min
Measured concentration of PEA (analyte) [1]: 0.069 µM
Measured concentration of PEA (analyte) [2]: 0.17 µM
Measured concentration of PEA (analyte) [3]: 0.092 µM
Measured concentration of PEA (analyte) [4]: 0.061 µM
Measured concentration of PEA (analyte) [5]: 0.013 µM
% Remaining of Initial [6]: 100%
% Remaining of Initial [7]: 17%
% Remaining of Initial [8]: 2.8%
% Remaining of Initial [9]: <1.0%
% Remaining of Initial [10]: <1.0%
half-life at 1 μM (male, Sprague-Dawley, rat): < 10 min
half-life at 1 μM [11]: 3.9 min

CCCCCCCCCCCCCCCC(=O)NCCOC(=O)CCC(=O)OC(COC(=O)CCC)COC(=O)CCC [Compound I-16]
Measured concentration of PEA (analyte) (both, human, 0 min): 0.10 µM
Measured concentration of PEA (analyte) (both, human, 10 min): 0.46 µM
Measured concentration of PEA (analyte) (both, human, 20 min): 0.42 µM
Measured concentration of PEA (analyte) (both, human, 30 min): 0.39 µM
Measured concentration of PEA (analyte) (both, human, 60 min): 0.27 µM
% Remaining of Initial (both, human, s9, 0 h): 100%
% Remaining of Initial (both, human, s9, 10 min): 4.9%
% Remaining of Initial (both, human, s9, 20 min): 2.1%
% Remaining of Initial (both, human, s9, 0.5 h): <1.0%
% Remaining of Initial (both, human, s9, 1 h): <1.0%
half-life at 1 μM (both, human): < 10 min
Measured concentration of PEA (analyte) (male, Beagle, dog, 0 min): 0.053 µM
Measured concentration of PEA (analyte) (male, Beagle, dog, 10 min): 0.26 µM
Measured concentration of PEA (analyte) (male, Beagle, dog, 20 min): 0.33 µM
Measured concentration of PEA (analyte) (male, Beagle, dog, 30 min): 0.29 µM
Measured concentration of PEA (analyte) (male, Beagle, dog, 60 min): 0.23 µM
% Remaining of Initial (male, Beagle, dog, s9, 0 h): 100%
% Remaining of Initial (male, Beagle, dog, s9, 10 min): 2.1%
% Remaining of Initial (male, Beagle, dog, s9, 20 min): <1.0%
% Remaining of Initial (male, Beagle, dog, s9, 0.5 h): <1.0%
% Remaining of Initial (male, Beagle, dog, s9, 1 h): <1.0%
half-life at 1 μM (male, Beagle, dog): < 10 min
Measured concentration of PEA (analyte) (male, CD-1, mouse, 0 min): 0.33 µM
Measured concentration of PEA (analyte) (male, CD-1, mouse, 10 min): 0.78 µM
Measured concentration of PEA (analyte) (male, CD-1, mouse, 20 min): 0.68 µM
Measured concentration of PEA (analyte) (male, CD-1, mouse, 30 min): 0.59 µM
Measured concentration of PEA (analyte) (male, CD-1, mouse, 60 min): 0.43 µM
% Remaining of Initial (male, CD-1, mouse, s9, 0 h): 100%
% Remaining of Initial (male, CD-1, mouse, s9, 10 min): 3.7%
% Remaining of Initial (male, CD-1, mouse, s9, 20 min): <1.0%
% Remaining of Initial (male, CD-1, mouse, s9, 0.5 h): <1.0%
% Remaining of Initial (male, CD-1, mouse, s9, 1 h): <1.0%
half-life at 1 μM (male, CD-1, mouse): < 10 min
Measured concentration of PEA (analyte) [1]: 0.050 µM
Measured concentration of PEA (analyte) [2]: 0.13 µM
Measured concentration of PEA (analyte) [3]: 0.13 µM
Measured concentration of PEA (analyte) [4]: 0.058 µM
Measured concentration of PEA (analyte) [5]: 0.020 µM
% Remaining of Initial [6]: 100%
% Remaining of Initial [7]: 3.0%
% Remaining of Initial [8]: <1.0%
% Remaining of Initial [9]: <1.0%
% Remaining of Initial [10]: <1.0%
half-life at 1 μM (male, Sprague-Dawley, rat): < 10 min
half-life at 1 μM [11]: 2 min
